Reference: US7718636B2, “Use of 2-methylene-19-nor-20(S)-1alpha,25dihydroxy vitamin d3 to inhibit mammary tumor” (Wisconsin Alumni Research Foundation, priority 2003, dated 2010)

Tests used:
[1] = tested on: aged, ovariectomized female rats; test: Survival of aged ovariectomized female rats given 2-MD orally each day for 7.5 months; assay type: in vivo, rat
Experimental: Thus, the experiment was carried out as follows:
(§1) 48 retired female breeder rats of 12 months of age were obtained from the Harlan Sprague-Dawley Company. Upon arrival, the animals were ovariectomized or sham-operated. These animals were housed in individual hanging wire cages and provided water ad libitum. Food consumption was restricted to 19-21 g/day. Animals were maintained on a purified diet described by Suda et al (J. Nutr. 1970) which contained 0.47% calcium and 0.3% phosphorus. In addition, these animals received supplements of vitamin A, E, D, and K as described in the Suda paper. One half of the animals received each day 0.1 ml of Wesson Oil while the remaining one-half of the animals received orally the 0.1 ml of Wesson Oil containing 5 or 7 ng/2-MD/kg body weight. The animals were monitored weekly for body weight, general health and survival. These animals were followed for 7.5 months.

[2] = Body weight in aged female rats; assay type: in vivo; conditions: at 7-1/2 months, 5 or 7 ng 2-MD/kg orally each day
From the text: as §1

calcium from bone = conditions: compared to 1α,25-dihydroxyvitamin D3; cited from earlier work

Question: Which “survival and general health over the entire period” value ([1]; 5 or 7 ng 2-MD/kg body weight orally each day, 7.5 months) does the source give for `C=C1[C@H](O)CC(=C/C=C2\CCC[C@]3(C)[C@@H]([C@@H](C)CCCC(C)(C)O)CC[C@@H]23)C[C@H]1O` [2-MD, 2-methylene-19-nor-20(S)-1α,25-dihydroxyvitamin D3] here?
Answer: survived the entire period and were in good health

Question: And the survival rate ([1]; aged, ovariectomized female rats, oral 2-MD each day, 7.5 months)?
Answer: 100%

Question: And the “Survival Ratio #premature deaths/total # animals” value ([1]; ovariectomized or sham-operated retired female breeder rats, 12 months of age, 5 or 7 ng 2-MD/kg body weight orally each day in Wesson Oil, followed for 7.5 months)?
Answer: 0/24

Question: What about the “Body Weight Final” value [2] of the same molecule?
Answer: 382 ± 10 g

Question: And the “ability to mobilize calcium from bone” value (calcium from bone)?
Answer: very high activity
